Measured values: paper PMC4729137, “Functional analysis of androgen receptor mutations that confer anti-androgen resistance identified in circulating cell-free DNA from prostate cancer patients” (Genome Biology, 2016)
Read-outs that look alike come from different tables or passages of the source.

Tests used:
[1] = serum of prostate cancer patients, cited from earlier work
[2] = target: T1, BF3 pocket of AR-LBD (Homo sapiens, UniProt P10275); experiment: Lanthascreen TR-FRET displacement of FITC-BAG1L peptide; assay type: binding; settings: compounds 0.41 to 100 μM
T1 construct: the (His)6-tagged AR-LBD was prepared at 4X final concentration in the buffer
T1 sequence (P10275 669-900 limits assumed): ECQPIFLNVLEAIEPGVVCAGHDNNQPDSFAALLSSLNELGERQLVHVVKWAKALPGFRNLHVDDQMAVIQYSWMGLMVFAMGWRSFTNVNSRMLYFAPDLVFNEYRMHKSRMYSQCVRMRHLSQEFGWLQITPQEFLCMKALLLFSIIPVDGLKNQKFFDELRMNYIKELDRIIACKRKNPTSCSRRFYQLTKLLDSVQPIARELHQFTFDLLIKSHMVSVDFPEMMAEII
Protocol: Compounds were tested in the range of 0.41 to 100 μM in a final concentration of 1.5 % DMSO. The protein AR-LBD, the FITC-BAG1L peptide, and the LanthaScreen® Elite Terbium-labeled anti-His-tag antibody (Life Technologies, PV5863) were used at final concentrations of 100 nM, 500 nM, and 5 nM, respectively. […] Mix B contained 4X FITC-BAG1L peptide in 2 % DMSO. A three-fold serial dilution of the compounds was prepared at 100X final concentration in DMSO. […] In a black flat bottom 384-well plate 5 μL of Mix A, 5 μL of Mix B, and 10 μL of Mix C were added.

[3] = tested on: 24 AR mutants; experiment: AR inhibition luciferase assay, panel of all 24 AR mutants; assay type: cell-based, human; settings: all tested AR mutants; Additional file 4: Table S2
Excerpt: Full-length human AR (WT-AR) was encoded on a pcDNA3.1 expression plasmid (Life technologies). The LBD point mutations (single and multiple) were generated using the QuikChange II Site-Directed Mutagenesis Kit (Agilent Technologies) as per manufacturer’s instructions using WT-AR as the template. The mutagenic oligonucleotide primers were designed individually with the desired mutation in the middle of the primer with approximately 10 to 15 bases of correct sequence on both sides.
PC3 cells were seeded and transfected as described above. […] A non-stimulated/no R1881 control was used. After 24 h, cells were lysed and AR-dependent luciferase activity was quantified. Each concentration was assayed in quadruplicate n = 4, with a biological replicate of n = 3. Results were averaged and normalized by expressing them as a percentage of WT AR activity.

Compound: CC(O)(CS(=O)(=O)c1ccc(F)cc1)C(=O)Nc1ccc(C#N)c(C(F)(F)F)c1 (stereo not shown) [Bicalutamide, bicalutamide]
- Steady state concentration in serum [1]: 8.9 µg/mL
- Steady state concentration in serum ([1]; converted from μg/mL): approximately 20 μM

Compound: Brc1cn(-c2csc(N3CCOCC3)n2)c(Br)n1 [VPC-14449]
- Displacement of FITC labeled BAG1L peptide (residues 1-20) from the BF3 pocket of AR [2]: not able to displace

Compound: C[C@]12CC[C@H](O)CC1=CC[C@@H]1[C@@H]2CC[C@]2(C)C(c3cccnc3)=CC[C@@H]12 [abiraterone]
- Activation of AR mutants (in words) [3]: none of the tested mutants were activated
